Reference: patent US20010034039A1, “Bioluminescent organism for detecting toxic substances” (priority 2000, published 2001)
≈ marks a conversion by molar mass, not a printed value. Where two headings read alike, the source gives them in different places.

How the values were obtained:
[1] = system: YH9-RC deposited under KCTC 0730BP; assay: microbe, parasite or virus in culture; assay type: cell-based; conditions: Janthinobacterium lividum, read-out: EC50 (decrease luminescence by 50%)
Procedure: Toxicity tests for a variety of substances described in the following Table 2 were conducted using YH9-RC deposited under KCTC 0730BP obtained in the Example 1 to calculate EC50 (Effective concentration 50: the effective concentration of tested organism that decrease luminescence by 50%). It was compared with the EC50 value using oceanic luminescent bacterium (Vibrio sp. Isolate) that was most commonly used in a conventional toxicity test. First, the YH9-RC colony was cultured in an R2A broth containing 5 μg/ml of tetracycline (liquid culture medium containing Bacto yeast extract 0.5 wt %, Bacto proteose peptone No. 3 0.5 wt %, Bacto casamino acids 0.5 wt %, Bacto dextrose 0.5 wt %, soluble starch 0.5 wt %, sodium pyruvate 0.5 wt %, potassium phosphate dibasic 0.5 wt %, and magnesium sulfate 0.5 wt %) for 18 hours or more, and then it was sub-cultured in an R2A broth for another 7 to 8 hours, and the aliquot of the fresh culture was used in the toxicity test. In addition, 80 μl of the cell culture liquid, 80 μl of 0.03 wt % aldehyde aqueous solution, and 40 μl of a toxic sample diluted to various concentrations were mixed in a test tube of a luminometer, […]

[2] = system: oceanic luminescent bacterium (Vibrio sp. Isolate); assay: microbe, parasite or virus in culture; assay type: cell-based; conditions: read-out: EC50 (decrease luminescence by 50%)
[3] = system: YH-9; conditions: YH9 strain
Excerpt: Then, the YH9 was transformed, and luminescent genes were introduced therein.

Structure (SMILES)	EC50 ([1]; 5 min) [µg/mL]	EC50 ([1]; 10 min) [µg/mL]	EC50 ([1]; 0.25 h) [µg/mL]	EC50 ([2]; 5 min) [µg/mL]	EC50 ([2]; 10 min) [µg/mL]	EC50 ([2]; 0.25 h) [µg/mL]	MIC for phenol among various Gram-negative isolates [3]	EC50 ([1]; 5 min, YH9-RC, 5 minutes) [µg/mL]	EC50 ([1]; 10 min, YH9-RC, 10 minutes) [µg/mL]	EC50 ([1]; 0.25 h, YH9-RC, 15 minutes) [µg/mL]	EC50 ([2]; 0.25 h, 15 minutes) [µg/mL]
c1ccccc1 [Benzene]	75.2 (≈ 962 µM)	50.9 (≈ 652 µM)	35.1 (≈ 449 µM)	478 (≈ 6120 µM)	607 (≈ 7770 µM)	747 (≈ 9570 µM)	–	–	–	–	–
Oc1ccccc1 [Phenol]	26.5 (≈ 282 µM)	12 (≈ 128 µM)	12.7 (≈ 135 µM)	116 (≈ 1230 µM)	105 (≈ 1120 µM)	63.1 (≈ 670 µM)	lowest MIC	–	–	–	–
Cc1ccccc1 [Toluene]	–	–	–	87.1 (≈ 945 µM)	120 (≈ 1300 µM)	–	–	5.61 (≈ 60.9 µM)	5.65 (≈ 61.3 µM)	6.3 (≈ 68.4 µM)	142 (≈ 1540 µM)
Cc1ccc(C)cc1 [p-xylene]	–	–	–	27.4 (≈ 258 µM)	105 (≈ 990 µM)	–	–	45.3 (≈ 427 µM)	37.7 (≈ 355 µM)	49.8 (≈ 469 µM)	63.1 (≈ 594 µM)
